Experimental data as given in patent publication EP0068408A1 (priority 1981, dated 1983).
Values after ≈ are worked out from the molar mass of the structure shown. Read-outs that look alike come from different tables or passages of the source.

Tests used:
[1] = tested on: influenza A0 virus; assay: animal or person; format: in vivo, mice; settings: Mus musculus, 360 h, twice a day for 14 days, survivors at 15th day, read-out: Survival rate; for responders at 300 mg/kg: oral; for responders at 100 mg/kg: ip, intraperitoneal
[2] = tested on: Influenza B; assay: microbe, parasite or virus in culture; format: cell-based
[3] = tested on: Rhino; assay: microbe, parasite or virus in culture; format: cell-based
[4] = tested on: Parainfluenza Type 3; assay: microbe, parasite or virus in culture; format: cell-based; settings: virus E = Parainfluenza Type 3
[5] = tested on: ECHO; assay: microbe, parasite or virus in culture; format: cell-based
[6] = Acute toxicity in mice (LD50); format: in vivo; settings: ddY male mice, suspended in 5% Arabic gum solution, observed for 7 days; for LD50 at 168 h: mouse, in vivo
Description: Experimental Example 7: Acute Toxicity in Mice
Each compound of the invention was suspended in 5% Arabic gum solution and given orally (p.o.) or intraperitoneally (i.p.) to groups of ten ddY male mice weighed from 24 to 26 g at the dosage volume of 10 ml/kg. […] LD50 was determined according to the method of Wilcoxon and Litchfield.

[7] = tested on: Influenza A1; assay: microbe, parasite or virus in culture; format: cell-based
[8] = tested on: Coxsackie Type B5; assay: microbe, parasite or virus in culture; format: cell-based; settings: virus G = Coxsackie Type B5
[9] = tested on: Influenza A0; assay: microbe, parasite or virus in culture; format: cell-based; settings: virus A = Influenza A0, MDCK, Vero and HEL cells, 2 or 3 days
[10] = tested on: influenza virus B/GL; assay: animal or person; format: in vivo, mice; settings: for responders at 100 mg/kg / responders at 300 mg/kg / responders at 30 mg/kg: unidentified influenza virus, in Mus musculus, po, 360 h, read-out: Survival rate; for survival rates of the treated groups as compared with the control: result in words, Table 7
[11] = tested on: coxsackie virus B1; design: species or system mice; settings: mouse, in vivo, po
[12] = tested on: parainfluenza virus type 3; design: species or system mice; settings: mouse, in vivo, po
[13] = tested on: influenza virus A/WSN; assay: animal or person; format: in vivo, mice; settings: in Mus musculus, 360 h, read-out: Survival rate
[14] = ip, i.p., read-out: LD50 value, Intraperitoneal administration
[15] = po, p.o., read-out: LD50 value, Oral administration

Row | Structure (SMILES) | responders at 300 mg/kg [1] [%] | responders at 100 mg/kg [1] [%] | MIC [2] [µg/mL] | MIC [3] [µg/mL] | MIC [4] [µg/mL] | MIC [5] [µg/mL] | LD50 at 168 h [6, 14] [mg/kg] | LD50 at 168 h [6, 15] [mg/kg] | MIC [7] [µg/mL] | MIC [8] [µg/mL] | MIC [9] [µg/mL] | responders at 100 mg/kg [10] [%] | responders at 300 mg/kg [10] [%] | responders at 100 mg/kg ([13]; po) [%] | further results
1 | N=C(N)NNS(=O)(=O)c1cc(C(=O)O)c(Cl)cc1Cl [Compound 22] | 40 | 40 | 300 (≈ 917 µM) | 300 (≈ 917 µM) | 300 (≈ 917 µM) | 100 (≈ 306 µM) | > 1000 | > 3000 | 300 (≈ 917 µM) | 300 (≈ 917 µM) | 100 (≈ 306 µM) | – | – | – | –
2 | NC(=O)NNS(=O)(=O)c1cc(C(=O)O)c(Cl)cc1Cl [Compound 23] | 40 | 40 | 300 (≈ 914 µM) | 300 (≈ 914 µM) | 100 (≈ 305 µM) | 300 (≈ 914 µM) | > 1000 | > 3000 | 300 (≈ 914 µM) | 300 (≈ 914 µM) | 100 (≈ 305 µM) | – | – | – | –
3 | NC(=O)C(=O)NNS(=O)(=O)c1cc(C(=O)O)c(Cl)cc1Cl [Compound 24] | 50 | 40 | 300 (≈ 842 µM) | 100 (≈ 281 µM) | 300 (≈ 842 µM) | 300 (≈ 842 µM) | > 1000 | > 3000 | 300 (≈ 842 µM) | 300 (≈ 842 µM) | 100 (≈ 281 µM) | – | – | – | –
4 | NS(=O)(=O)c1cc(Cl)cc(C(=O)O)c1 [Compound 25] | 50 | 40 | 100 (≈ 424 µM) | 300 (≈ 1270 µM) | 300 (≈ 1270 µM) | 300 (≈ 1270 µM) | > 1000 | > 3000 | 300 (≈ 1270 µM) | 300 (≈ 1270 µM) | 30 (≈ 127 µM) | – | – | – | –
5 | NS(=O)(=O)c1cc(Br)cc(C(=O)O)c1 [Compound 26] | 50 | 40 | 300 (≈ 1070 µM) | 300 (≈ 1070 µM) | 300 (≈ 1070 µM) | 100 (≈ 357 µM) | > 1000 | > 3000 | 300 (≈ 1070 µM) | 300 (≈ 1070 µM) | 30 (≈ 107 µM) | – | – | – | –
6 | NS(=O)(=O)c1ccc(Cl)cc1C(=O)O [Compound 27] | 40 | 40 | 100 (≈ 424 µM) | 100 (≈ 424 µM) | 300 (≈ 1270 µM) | 300 (≈ 1270 µM) | > 1000 | > 3000 | 300 (≈ 1270 µM) | 300 (≈ 1270 µM) | 30 (≈ 127 µM) | – | – | – | –
7 | CC(C)OC(=O)c1ccc(Br)c(S(N)(=O)=O)c1 [Compound 29] | – | – | – | – | – | – | – | – | – | – | – | 30 | 40 | – | LD50 value, Intraperitoneal administration ([6]; i.p.): >1,000 mg/kg; LD50 value, Oral administration ([6]; p.o.): >3,000 mg/kg
8 | CCCCOC(=O)c1ccc(Br)c(S(N)(=O)=O)c1 [Compound 30] | – | – | – | – | – | – | – | – | – | – | – | – | 70 | – | survival rates of the treated groups as compared with the control [10]: extremely excellent activity; responders at 30 mg/kg [10]: 60%; LD50 value, Intraperitoneal administration ([6]; i.p.): >1,000 mg/kg; LD50 value, Oral administration ([6]; p.o.): >3,000 mg/kg; Survival rate ([11]; 300 mg/kg): 40%; Survival rate ([11]; 1000 mg/kg): 70%; Survival rate ([12]; 30 mg/kg): 40%; Survival rate ([12]; 100 mg/kg): 60%
9 | COC(=O)c1cc(S(N)(=O)=O)c(Cl)cc1Cl [Compound 31] | – | – | – | – | – | – | > 1000 | > 3000 | – | – | – | 40 | 50 | 40 | responders at 300 mg/kg ([13]; po): 50%
10 | CCCOC(=O)c1cc(S(N)(=O)=O)c(Cl)cc1Cl [Compound 33] | – | – | – | – | – | – | > 1000 | > 3000 | – | – | – | 40 | 50 | 50 | responders at 30 mg/kg ([13]; ip): 40%; responders at 100 mg/kg ([13]; ip): 50%; responders at 300 mg/kg ([13]; po): 60%
11 | CCCCOC(=O)c1cc(S(N)(=O)=O)c(Cl)cc1Cl [Compound 35] | – | – | – | – | – | – | > 1000 | > 3000 | – | – | – | 60 | – | 60 | survival rates of the treated groups as compared with the control [10]: extremely excellent activity; responders at 30 mg/kg [10]: 40%; responders at 30 mg/kg ([13]; po): 40%; Survival rate ([11]; 300 mg/kg): 40%; Survival rate ([11]; 1000 mg/kg): 80%; Survival rate ([12]; 30 mg/kg): 30%; Survival rate ([12]; 100 mg/kg): 60%
12 | CCCCCCCCOC(=O)c1cc(S(N)(=O)=O)c(Cl)cc1Cl [Compound 37] | – | – | – | – | – | – | > 1000 | > 3000 | – | – | – | 80 | – | 70 | survival rates of the treated groups as compared with the control [10]: extremely excellent activity; responders at 30 mg/kg [10]: 50%; responders at 10 mg/kg [13]: 50%; responders at 30 mg/kg ([13]; ip): 60%; responders at 30 mg/kg ([13]; po): 50%; Survival rate ([11]; 300 mg/kg): 50%; Survival rate ([11]; 1000 mg/kg): 80%; Survival rate ([12]; 30 mg/kg): 40%; Survival rate ([12]; 100 mg/kg): 70%
13 | COC(=O)c1cc(S(N)(=O)=O)c(Cl)cc1F [Compound 41] | – | – | – | – | – | – | > 1000 | > 3000 | – | – | – | 30 | 50 | – | responders at 30 mg/kg ([13]; ip): 30%; responders at 100 mg/kg ([13]; ip): 50%
